We go through 32 compounds from ChEMBL document CHEMBL3400102, “Design, synthesis and biological evaluation of N-phenylthieno[2,3-d]pyrimidin-4-amines as inhibitors of FGFR1” (Bioorg Med Chem, 2015).

SMILES strings stand for the structures. Where only a bound is given, the exact number is not on record here.

Fibroblast growth factor receptor 1, sequence (P11362 whole entry): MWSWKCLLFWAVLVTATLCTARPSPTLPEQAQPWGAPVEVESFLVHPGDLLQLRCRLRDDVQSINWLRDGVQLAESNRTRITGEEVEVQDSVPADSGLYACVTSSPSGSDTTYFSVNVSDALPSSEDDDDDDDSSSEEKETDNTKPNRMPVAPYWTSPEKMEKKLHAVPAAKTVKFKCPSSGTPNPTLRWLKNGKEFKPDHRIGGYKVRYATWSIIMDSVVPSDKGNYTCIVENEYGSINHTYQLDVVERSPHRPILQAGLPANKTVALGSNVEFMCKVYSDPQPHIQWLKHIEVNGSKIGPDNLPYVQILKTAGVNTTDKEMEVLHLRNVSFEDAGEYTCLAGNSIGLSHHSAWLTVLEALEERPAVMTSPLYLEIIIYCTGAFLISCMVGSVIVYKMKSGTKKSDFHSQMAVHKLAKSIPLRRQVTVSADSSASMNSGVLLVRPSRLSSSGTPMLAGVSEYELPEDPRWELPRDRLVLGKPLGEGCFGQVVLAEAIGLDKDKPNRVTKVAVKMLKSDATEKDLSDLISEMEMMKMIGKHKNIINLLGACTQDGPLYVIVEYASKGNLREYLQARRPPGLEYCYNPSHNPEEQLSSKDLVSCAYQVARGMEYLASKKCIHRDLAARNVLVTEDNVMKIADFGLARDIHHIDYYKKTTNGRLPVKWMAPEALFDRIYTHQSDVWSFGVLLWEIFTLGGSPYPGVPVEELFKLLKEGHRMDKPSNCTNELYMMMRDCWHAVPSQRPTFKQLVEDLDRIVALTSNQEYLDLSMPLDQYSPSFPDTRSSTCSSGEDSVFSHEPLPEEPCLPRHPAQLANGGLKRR

The first assay has as its target Fibroblast growth factor receptor 1 (Homo sapiens, UniProt P11362). The assay is described as follows: Inhibition of FGFR1 (unknown origin) using KKKSPGEYVNIEFG peptide substrate assessed as incorporation of [32P] into peptide by scintillation counting analysis.
Details: not given
Consider `CCOC(=O)c1sc2ncnc(Nc3cccc(C(=O)O)c3)c2c1C`, for which the IC50 (usually the concentration that gives 50% inhibition) is greater than 30 µM. For `Cc1ccc(-c2csc3ncnc(Nc4ccc(C(=O)O)cc4)c23)cc1`, the 50% inhibitory concentration (IC50) was greater than 30 µM. Still for that read-out and setting: with `CCOc1ccc(-c2csc3ncnc(Nc4cccc(O)c4)c23)cc1` the figure was 12.5 µM; with `Cc1cc2c(Nc3ccc(O)cc3)ncnc2s1`, 5.6 µM. The same measure, in the same setting: with `Oc1ccc(Nc2ncnc3scc(-c4ccccc4)c23)cc1` the figure was 1.66 µM. Consider `Fc1ccc(Nc2ncnc3sc4c(c23)CCCC4)cc1`, for which the IC50 was 3.2 µM.

Take `Fc1ccc(Nc2ncnc3scc(-c4ccc(Cl)cc4)c23)cc1`: the 50% inhibitory concentration (IC50) is greater than 30 µM. The same measure, in the same setting: with `CCOC(=O)c1sc2ncnc(Nc3ccc(F)cc3)c2c1C` the figure was greater than 30 µM; with `Fc1ccccc1Nc1ncnc2sc3c(c12)CCCCC3`, 4.3 µM; with `Fc1ccccc1Nc1ncnc2sc(-c3ccccc3)cc12`, 18.2 µM.

For the compound `Fc1ccccc1Nc1ncnc2scc(-c3ccccc3)c12`, the IC50 is greater than 30 µM. Same read-out and setting: with `Fc1ccc(Nc2ncnc3scc(-c4ccccc4)c23)cc1` the figure was 6.3 µM; with `Fc1ccc(Nc2ncnc3sc(-c4ccccc4)cc23)cc1`, 4.3 µM. For `Cc1ccc(-c2csc3ncnc(Nc4ccc(F)cc4)c23)cc1`, the IC50 was greater than 30 µM. The same measure, in the same setting: with `Cc1ccc(-c2csc3ncnc(Nc4cccc(C(=O)O)c4)c23)cc1` the figure was 11 µM; with `Fc1ccc(Nc2ncnc3sc4c(c23)CCCCC4)cc1Cl`, 1.6 µM. Still for that read-out and setting: with `CCOC(=O)c1sc2ncnc(Nc3ccc(OC)cc3)c2c1C` the figure was greater than 30 µM; with `COc1ccc(Nc2ncnc3scc(-c4ccccc4)c23)cc1`, 3 µM.

With `COc1ccc(Nc2ncnc3scc(-c4ccc(C)cc4)c23)cc1`, the IC50 is 5 µM. `CCOC(=O)c1sc2ncnc(Nc3cccc(OC)c3)c2c1C`: the half-inhibitory concentration (IC50) was greater than 30 µM. On the same count and under the same terms, with `COc1cccc(Nc2ncnc3scc(-c4ccc(Cl)cc4)c23)c1` the figure was greater than 30 µM; with `COc1cccc(Nc2ncnc3scc(-c4ccccc4)c23)c1`, 2.5 µM; with `CCOc1ccc(-c2csc3ncnc(Nc4ccc(O)cc4)c23)cc1`, greater than 30 µM. The same measure, in the same setting: in the case of `Cc1nc(Nc2ccc(O)cc2)c2cc(-c3ccccc3)sc2n1` it was 5 µM; in that of `Cc1sc2ncnc(Nc3ccc(O)cc3)c2c1-c1ccccc1`, 1.25 µM. Still for that read-out and setting: with `Oc1ccc(Nc2ncnc3sc(-c4ccccc4)cc23)cc1` the figure was 1.2 µM; with `Oc1ccc(Nc2ncnc3scc(-c4ccc(Cl)cc4)c23)cc1`, 3 µM.

As to `Cc1ccc(-c2csc3ncnc(Nc4cccc(O)c4)c23)cc1`, the IC50 was found to be 0.7 µM. Turning to `Oc1cccc(Nc2ncnc3scc(-c4ccc(Cl)cc4)c23)c1`, the IC50 was 0.5 µM.

As to `CCOC(=O)c1sc2ncnc(Nc3cccc(O)c3)c2c1C`, the IC50 came out at 0.5 µM. The same measure, in the same setting: with `Oc1cccc(Nc2ncnc3scc(-c4ccccc4)c23)c1` the figure was 0.18 µM. For the compound `Oc1cccc(Nc2ncnc3sc(-c4ccccc4)cc23)c1`, the IC50 came out at 0.16 µM.

System in the next assay: not listed separately
The assay is described as follows: Antiproliferative activity against human KG1 cells after 72 hrs by MTT assay. It counts as functional, cell-based. To be noted: KG-1, 72 h. For orientation: Tetrazolium dyes change colour on reduction, which living cells bring about.
As to `Cc1ccc(-c2csc3ncnc(Nc4cccc(O)c4)c23)cc1`, the IC50 is 33.9 µM. On the same count and under the same terms, in the case of `Oc1cccc(Nc2ncnc3scc(-c4ccc(Cl)cc4)c23)c1` it was 50 µM; in that of `Oc1cccc(Nc2ncnc3scc(-c4ccccc4)c23)c1`, 26.2 µM. Same read-out and setting: in the case of `Oc1cccc(Nc2ncnc3sc(-c4ccccc4)cc23)c1` it was 16.2 µM.
